The values below come from patent US6531610B1 (Abbott Laboratories, priority 1989, dated 2003).

In one data set the test system is HIV-13B in MT4 cells. Kind of data set: Antiviral activity: inhibition of the cytopathic effect of HIV in MT4 cells. The class given is cell-based, HIV-1. For orientation: Cytopathic effects are the visible damage that an infection or toxin causes in cultured cells.
The test system of the next data set is MT4 cells. Kind of data set: in vitro. As to conditions: concentration at which 50% of the cells remain viable; MT4 cells; read-out: LC50 (the source's name). Type of data set: cell-based. The source says: (§1) The anti-HIV activity of the compounds of the invention can be determined in MT4 cells according to the procedure of Kempf, et. al. (Antimicrob. Agents Chemother. 1991, 35, 2209).

The next data set addresses HIV-1 protease (Human immunodeficiency virus type 1 group M subtype B, UniProt P04585). Kind of data set: Fluorogenic assay for screening inhibitors of HIV protease. Particulars: Inhibitor Concentration 0.5 nanomolar, fluorogenic substrate, pH 4.5, read-out: Percent Inhibition. The class given is biochemical. As for the experimental part: The inhibitory potency of the compounds of the invention can be determined by the following method.
A compound of the invention is dissolved in DMSO and a small aliquot further diluted with DMSO to 100 times the final concentration desired for testing. The reaction is carried out in a 6×50 mm tube in a total volume of 300 microliters. The final concentrations of the components in the reaction buffer are: 125 mM sodium acetate, 1 M sodium chloride, 5 mM dithiothreitol, 0.5 mg/ml bovine serum albumin, 1.3 μM fluorogenic substrate, 2% (v/v) dimethylsulfoxide, pH 4.5. After addition of inhibitor, the reaction mixture is placed in the fluorometer cell holder and incubated at […] for several minutes. The reaction is initiated by the addition of a small aliquot of cold HIV protease. The fluorescence intensity (excitation 340 nm, emission 490 nm) is recorded as a function of time. The reaction rate is determined for the first six to eight minutes. The observed rate is directly proportional to the moles of substrate cleaved per unit time. The percent inhibition is 100×(1-(rate in presence of inhibitor)/(rate in absence of inhibitor)).
Fluorogenic substrate: Dabcyl-[…]EDANS wherein DABCYL=4-(4-dimethylamino-phenyl)azobenzoic acid and EDANS=5-((2-aminoethyl)amino)-naphthalene-1-sulfonic acid.

Another data set can be described thus: in vitro. The class given is cell-based. As to conditions: human.
Text: as §1

[1] abbreviates: concentration giving 50% inhibition of the cytopathic effect of HIV, HIV-13B in MT4 cells, read-out: IC50.

Structures can show the parent of a compound that is named as a salt. Where two headings read alike, the source gives them in different places. Bounds are passed on as bounds.

Turning to `CC(C)c1nc(CN(C)C(=O)N[C@H](C(=O)N[C@@H](Cc2ccccc2)C[C@H](O)[C@H](Cc2ccccc2)NC(=O)OCc2cnco2)C(C)C)co1` [Example 19], in the data set with HIV-13B in MT4 cells (setting [1]), the IC50 fell in the range of 22 to 48 nM. Moreover, in the data set on MT4 cells, the CC50 turned out to be 87000 nM.

In the case of `CC(C)c1csc(COC(=O)N[C@H](C(=O)N[C@@H](Cc2ccccc2)C[C@H](O)[C@H](Cc2ccccc2)NC(=O)OCc2cncs2)C(C)C)n1` [Example 21, (2S,3S,5S)-5-(N-(N-((4-Isopropyl-2-thiazolyl)methoxycarbonyl)valinyl)amino)-2-(N-((5-thiazolyl)methoxycarbonyl)amino)-1,6-diphenyl-3-hydroxyhexane], the melting point lay within 62 to 64 °C.

For the compound `CC(C)c1nc(CC(=O)N[C@H](C(=O)N[C@@H](Cc2ccccc2)C[C@H](O)[C@H](Cc2ccccc2)NC(=O)OCc2cncs2)C(C)C)cs1` [Example 50], the IC50 in the data set on HIV-13B in MT4 cells (setting [1]) was in the range of 150 to 270 nM. Further, the CC50 with MT4 cells was above 100000 nM.

With `CC(C)c1nc(CN(N)C(=O)N[C@H](C(=O)N[C@@H](Cc2ccccc2)C[C@H](O)[C@H](Cc2ccccc2)NC(=O)OCc2cncs2)C(C)C)cs1` [Example 63, (2S,3S,5S)-5-(N-(N-((N-(Amino)-N-((2-isopropyl-4-thiazolyl)methyl)amino)carbonyl)valinyl)amino)-2-(N-((5-thiazolyl)methoxycarbonyl)amino)-1,6-diphenyl-3-hydroxyhexane Hydrochloride], the inhibition at 0.0005 µM on HIV-1 protease stood at 61%. The IC50 in the data set on HIV-13B in MT4 cells (Human immunodeficiency virus 1, MT4) lay in the range of 130 to 180 nM. In addition, in “in vitro” (concentration at which 50% of the cells remain viable, MT4 cells, read-out: LC50 (the source's name)), the CC50 was 45000 nM.

Regarding `CC(C)c1nc(COC(=O)N[C@H](C(=O)N[C@@H](Cc2ccccc2)[C@@H](O)C[C@@H](Cc2cncs2)NC(=O)OCc2cncs2)C(C)C)cs1` [Example 65, (2S,3S,5S)-2-(N-(N-((2-Isopropyl-4-thiazolyl)methoxycarbonyl)valinyl)amino)-1-phenyl-5-(N-((5-thiazolyl)methoxycarbonyl)amino)-6-(5-thiazolyl)-3-hydroxyhexane], on HIV-1 protease, the inhibition at 0.0005 µM came to 70%. Besides, the IC50 in the data set with HIV-13B in MT4 cells (Human immunodeficiency virus 1, MT4, read-out: IC50) fell in the range of 120 to 200 nM. The same compound returned a CC50 in the data set “in vitro” above 100000 nM.

What is called IC50 is the concentration at which inhibition is half-maximal. For orientation: melting point means the temperature of the solid-liquid transition. As usually defined, the inhibition is the percentage by which the read-out fell short of the control.
